Measured values from article PMC7230990, “Deproteinization as a Rapid Method of Saliva Purification for the Determination of Carbamazepine and Carbamazepine-10,11 Epoxide” (Journal of Clinical Medicine, 2020).
Values joined by “and” are separate entries in the source; they are usually repeats but may differ in a detail not shown here. Identical values can stand only once.

Assays:
[1] = set-up: method as in PMID 29403934, PMID 23288091, PMID 29957667; settings: cited from earlier work
[2] = Stability of analytes in spiked saliva stored in a fridge at 8 °C; assay type: in vitro ADME, human; settings: for stability under the tested conditions: saliva at 8 °C, freeze–thaw at −21 °C, autosampler 15 °C 72 h, 30, 2000, 3750 ng/mL, stable = decrease less than 15%; for Difference (%): spiked saliva stored in a fridge at 8 °C
Procedure: The stability of the analytes was tested for three concentrations (low QC, medium QC, and high QC). The stability of the analytes was determined both in the matrix during storage at 8 °C and in a freeze–thaw test, during which spiked saliva samples were stored at −21 °C. […] The remainder of the sample was placed back in the refrigerator or frozen and analyzed in the following days. The compounds whose concentration decreased by less than 15% under the given storage conditions were considered to be stable.

[3] = Stability of analytes in spiked saliva, freeze–thaw test at −21 °C; assay type: in vitro ADME, human; settings: freeze–thaw cycles at −21 °C
Procedure: The stability of the analytes was tested for three concentrations (low QC, medium QC, and high QC). The stability of the analytes was determined both in the matrix during storage at 8 °C and in a freeze–thaw test, during which spiked saliva samples were stored at −21 °C. For each concentration of carbamazepine and metabolite, three 800 μL saliva samples were prepared in plastic tubes, spiked with an appropriate volume of analytes, and mixed. Then, 200 μL of saliva was taken from each sample, IS added, extracted, and chromatographed according to the procedures described in Section 2.4 and Section 2.5. The remainder of the sample was placed back in the refrigerator or frozen and analyzed in the following days.
(§1) The compounds whose concentration decreased by less than 15% under the given storage conditions were considered to be stable.

[4] = Carbamazepine and carbamazepine-10,11 epoxide concentrations in saliva of patients treated with carbamazepine (UHPLC-DAD after deproteinization); assay type: in vivo, human
Procedure: The chromatographic analysis was performed with a Nexer XR UHPLC (Ultra High Performance Liquid Chromatography) liquid chromatograph (Schimadzu, Kyoto, Japan), equipped with a SPD-M30A UV-Vis detector with a diode array and a highly sensitive measuring cell SPD-M30A (85 mm), CBM-20 Alite control system, LC-30AD pump, SIL-30AC autosampler, and CTO-20AC thermostat (Shimadzu, Kyoto, Japan). The compounds were separated using a Luna Omega 1.6 µm Polar C18 (LC Column 50 × 2.1 mm ID) with pre-columns (UHPLC Fully Porous Polar C18, 2.1 mm ID). The compounds were eluted from the column at 35 °C with a mobile phase consisting of water with added formic acid and triethylamine (TEA) (solvent A, pH 4.2) and acetonitrile (solvent B) at a flow of 1 mL/min.
The saliva samples were thawed, centrifuged, and then 200 μL of test material was collected and placed in plastic tubes. A 1% formic acid solution in acetonitrile (600 µL) was added to each of them, mixed with a vortex, shaken (laboratory shaker 358 S, Elpin, Poland) for about 10 min, and centrifuged for 5 min at 8000 rpm. The supernatant was transferred to glass tubes and evaporated. The dry residue was dissolved in 100 μL of an acetonitrile/water mixture with formic acid (1:10), and 10 μL was injected into the chromatographic column.
The usefulness of the method was determined by examining the saliva samples of 20 patients treated with carbamazepine preparations. They were collected from patients of the Nervous and Mentally Ill Hospital in Starogard Gdański (Poland). The study protocol was approved by the ethical committee of the Medical University of Gdansk, Poland (NKBBN/139/2016). Saliva was taken using Salivettes about 2 h after the administration of carbamazepine. The Salivette was placed in a test tube and centrifuged, and the obtained filtrate was frozen at −21 °C and stored until analysis. To perform the analyses, the samples were thawed, centrifuged, and 200 μL of liquid taken. Then, 50 μL of IS solution (10 μg/mL) was added and the procedure described in Section 2.4 was followed.

[5] = Stability of extracts kept in the autosampler at 15 °C for 72 h; assay type: physicochemical; settings: extracts in autosampler at 15 °C for 72 h
Procedure: The stability of the analytes was also determined during their storage in an autosampler at 15 °C for 72 h. For this purpose, five samples of each concentration were extracted and chromatographed. After 72 h, the samples were then chromatographed again alongside a freshly prepared calibration curve.
as §1

highest concentration reduction ([2]; 30 ng/mL in saliva samples stored at 8 °C) [%] | mean concentration in saliva ([4]; female, human, in vivo) [ng/mL] | determined concentrations in patient saliva, range ([4]; human, in vivo) [ng/mL] | mean concentration in saliva ([4]; male, human, in vivo) [ng/mL] | SMILES | half-life ([1]; after a single administration) [h] | excreted in the urine [1] [%] | stability under the tested conditions [2] | Difference (%) ([2]; 30 ng/mL) | Difference (%) ([2]; 2000 ng/mL) | Difference (%) ([2]; 3750 ng/mL) | Difference (%) ([3]; 30 ng/mL) | Difference (%) ([3]; 2000 ng/mL) | Difference (%) ([3]; 3750 ng/mL) | mean concentration in saliva ([4]; female patients) [ng/mL] | mean concentration in saliva ([4]; male patients) [ng/mL] | Carbamazepine Concentration ([4]; saliva of individual patients, about 2 h after administration of carbamazepine, dose 400-1800 mg/day) | Difference (%) ([5]; 30 ng/mL) | Difference (%) ([5]; 2000 ng/mL) | Difference (%) ([5]; 3750 ng/mL)
– | – | – | – | NC(=O)N1c2ccccc2C=Cc2ccccc21 [Carbamazepine, carbamazepine] | 36 | 72 | stable | −3.91 | −2.53 | −1.93 | −2.25 | −2.16 | −1.44 | 967 | 1882 | 344.7 ng/mL and 690.7 ng/mL and 1285.1 ng/mL and 464.0 ng/mL and 282.2 ng/mL and 472.9 ng/mL and 2456.8 ng/mL and 1668.1 ng/mL and 613.5 ng/mL and 784.3 ng/mL and 1119.9 ng/mL and 607.6 ng/mL and 1198.2 ng/mL and 1192.3 ng/mL and 1817.8 ng/mL and 4891.0 ng/mL and 4839.8 ng/mL and 1165.7 ng/mL and 262.2 ng/mL and 2334.2 ng/mL | −0.30 | −1.12 | −1.72
6 | 249 | 120 to 664 | 299 | NC(=O)N1c2ccccc2C2OC2c2ccccc21 (centres unmarked) [Carbamazepine-10,11 epoxide, carbamazepine-10,11 epoxide] | – | – | stable | −6.23 | −3.56 | −2.75 | −2.45 | −1.92 | −0.48 | – | – | – | −3.64 | −2.3 | 0.38
